{
  "source": "ChEMBL document CHEMBL1130171",
  "about": "“Structure--activity studies for alpha-amino-3-hydroxy-5-methyl-4-isoxazolepropanoic acid receptors: acidic hydroxyphenylalanines” (J Med Chem, 1997)",
  "key": {"[1]": {"test": "Protolysis constant at an ionic strength of 0.1 M.", "format": "ADME"}, "Rattus norvegicus [2]": {"species_on_record": "Rattus norvegicus", "test": "In vitro stimulation of norepinephrine release from hippocampal nerve endings.", "format": "functional", "conditions": "Hippocampus"}, "[3]": {"target": "Glutamate receptor ionotropic, AMPA (Rattus norvegicus, UniProt P19490+P19491+P19492+P19493)", "test": "Inhibition of specific binding of [3H]AMPA to Ionotropic glutamate receptor AMPA in rat brain membranes", "format": "cell membranes"}, "Rattus norvegicus [4]": {"species_on_record": "Rattus norvegicus", "test": "Inhibition of stimulation of NE release by 100 uM of AMPA", "format": "functional"}},
  "data": [
    {"smiles": "NC(Cc1cc(O)c([N+](=O)[O-])cc1[N+](=O)[O-])C(=O)O", "note": "(centres undefined)", "values": [
      {"measurement": "pKa", "setting": "[1]", "result": 3.8}
    ]},
    {"smiles": "NC(Cc1c([N+](=O)[O-])ccc(O)c1[N+](=O)[O-])C(=O)O", "note": "(centres undefined)", "values": [
      {"measurement": "pKa", "setting": "[1]", "result": 3.6}
    ]},
    {"smiles": "Cc1onc(O)c1C[C@H](N)C(=O)O", "note": "[(S)-AMPA]", "values": [
      {"measurement": "EC50", "setting": "Rattus norvegicus [2]", "result": 6.7, "unit": "µM"}
    ]},
    {"smiles": "NC(Cc1ccc([N+](=O)[O-])c(O)c1)C(=O)O", "note": "(centres undefined)", "values": [
      {"measurement": "pKa", "setting": "[1]", "result": 6.6}
    ]},
    {"smiles": "NC(Cc1cc([N+](=O)[O-])cc([N+](=O)[O-])c1O)C(=O)O", "note": "(centres undefined)", "values": [
      {"measurement": "IC50", "setting": "[3]", "result": 25, "unit": "µM"},
      {"measurement": "pKa", "setting": "[1]", "result": 6.4},
      {"measurement": "IC50", "setting": "Rattus norvegicus [4]", "result": 730, "unit": "µM"}
    ]},
    {"smiles": "NC(Cc1ccc(O)c([N+](=O)[O-])c1)C(=O)O", "note": "(centres undefined)", "values": [
      {"measurement": "pKa", "setting": "[1]", "result": 6.8}
    ]},
    {"smiles": "O=[N+]([O-])c1cc2nc(O)c(O)nc2cc1[N+](=O)[O-]", "note": "[DNQX]", "values": [
      {"measurement": "IC50", "setting": "Rattus norvegicus [4]", "result": 41, "unit": "µM"}
    ]},
    {"smiles": "NC(Cn1cc([N+](=O)[O-])c(=O)[nH]c1=O)C(=O)O", "note": "(centres undefined)", "values": [
      {"measurement": "pKa", "setting": "[1]", "result": 6.4},
      {"measurement": "EC50", "setting": "Rattus norvegicus [2]", "result": 15, "unit": "µM"}
    ]},
    {"smiles": "NC(Cc1ccccc1O)C(=O)O", "note": "(centres undefined)", "values": [
      {"measurement": "pKa", "setting": "[1]", "result": 8.67}
    ]},
    {"smiles": "NC(Cc1cc(O)ccc1[N+](=O)[O-])C(=O)O", "note": "(centres undefined)", "values": [
      {"measurement": "pKa", "setting": "[1]", "result": 6.8}
    ]},
    {"smiles": "Cc1cc([N+](=O)[O-])ccc1O", "values": [
      {"measurement": "pKa", "setting": "[1]", "result": 7.2}
    ]},
    {"smiles": "C=C(C)[C@H]1CN[C@H](C(=O)O)[C@H]1CC(=O)O", "note": "[KAINIC ACID]", "values": [
      {"measurement": "EC50", "setting": "Rattus norvegicus [2]", "result": 3.7, "unit": "µM"}
    ]},
    {"smiles": "O=C(O)C(O)Cc1cc([N+](=O)[O-])cc([N+](=O)[O-])c1O", "note": "(centres undefined)", "values": [
      {"measurement": "pKa", "setting": "[1]", "result": 4.2}
    ]},
    {"smiles": "NC(Cc1cc([N+](=O)[O-])ccc1O)C(=O)O", "note": "(centres undefined)", "values": [
      {"measurement": "pKa", "setting": "[1]", "result": 6.4}
    ]},
    {"smiles": "NC(Cn1ccc(=O)[nH]c1=O)C(=O)O", "note": "(racemic)", "values": [
      {"measurement": "pKa", "setting": "[1]", "result": 9.3}
    ]},
    {"smiles": "Cc1cccc([N+](=O)[O-])c1O", "values": [
      {"measurement": "pKa", "setting": "[1]", "result": 7.7}
    ]},
    {"smiles": "NC(Cc1cccc([N+](=O)[O-])c1O)C(=O)O", "note": "(centres undefined)", "values": [
      {"measurement": "pKa", "setting": "[1]", "result": 6.6}
    ]},
    {"smiles": "NC(Cc1ccc([N+](=O)[O-])c(O)c1[N+](=O)[O-])C(=O)O", "note": "(centres undefined)", "values": [
      {"measurement": "IC50", "setting": "[3]", "result": 4.9, "unit": "µM"},
      {"measurement": "pKa", "setting": "[1]", "result": 3.2},
      {"measurement": "EC50", "setting": "Rattus norvegicus [2]", "result": 74, "unit": "µM"}
    ]},
    {"smiles": "N[C@@H](Cc1cc([N+](=O)[O-])c(O)c([N+](=O)[O-])c1)C(=O)O", "values": [
      {"measurement": "pKa", "setting": "[1]", "result": 3.2}
    ]}
  ]
}
